Source: patent US11945826B2, “Hydroxypyridoxazepines as NRF2 activators” (GLAXOSMITHKLINE INTELLECTUAL PROPERTY DEVELOPMENT LIMITED, priority 2019, dated 2024)
Like-named read-outs stand apart in the source and are kept apart here.

What was measured:
Monkey PK Study = format: in vivo; details: cynomolgus monkey; for MRT / clearance: male, plasma, nominal 1 mg/kg 60-minute intravenous infusion, cassette; for MRT: read-out: Monkey Pharmacokinetics MRT; for clearance: read-out: Monkey Pharmacokinetics Total Clearance
Method: All studies were conducted after review by the GSK Institutional Animal Care and Use Committee and in accordance with the GSK Policy on the Care, Welfare and Treatment of Laboratory Animals. A pre-study health examination that included a physical exam and complete blood count was performed on the animals prior to use on study. A catheter was temporarily placed in a cephalic or saphenous vein for sample collection on the study day. The animals were fasted overnight prior to dosing; food provided after the 4-hour blood sample was collected. The intravenous and oral solution pharmacokinetic studies were carried out using a non-crossover design; a total of four male cynomolgus monkeys were used, two per route of administration.
The compounds used in this study were the compound of Example 1, herein, and Compound A (the compound of Example 1 of WO 2018/109646).
The dose for intravenous administration was prepared as a cassette of up to five test compounds in 20% Cavitron™ and 5% DMSO. The intravenous dose formulation was filtered through a 0.22-micron polytetrafluoroethylene (PTFE) filter prior to administration. The dose for oral solution administration was prepared as a cassette of up to five compounds in 6% Cavitron™ and 5% DMSO and was filtered through a 0.22-micron VWR PTFE filter prior to administration.
Each animal received a nominal dose of 1 mg/kg/compound (4 mL/kg dose volume) either as a 60-minute intravenous infusion or as an oral gavage. Blood samples (approximately 0.25 mL each) were collected from a cephalic or saphenous vein. Blood samples from animals that received the intravenous dose were collected prior to dosing and at target times of 15, 30, 45, 60 (before termination of the infusion), 62, 65, 75, 90, 120, 180, 240, 360, 480, 600, and 1440 minutes following the initiation of the intravenous infusion. For animals that received the oral dose, blood samples were collected prior to dosing and at target times of 5, 15, 30, 45, 60, 90, 120, 180, 240, 360, 480, 600, and 1440 minutes following oral gavage. Plasma was isolated from blood by centrifugation and a 30 μL aliquot was transferred to a non-heparinized tube, quick frozen on solid carbon dioxide and stored at approximately −80° C. until analyzed by liquid chromatography/tandem mass spectroscopy (LC/MS/MS) for test compound concentration.
Pharmacokinetic parameters for all in vivo PK studies were calculated using non-compartmental methods with Phoenix WinNonlin version 6.1.0 or 8.1.0. All parameters were calculated using actual blood sampling times and actual dosages for each animal. The extrapolated area under the curve (AUC0-inf) was determined using unweighted linear regression analysis of at least three log transformed concentrations visually assessed to be on the linear portion of the terminal elimination slope. Oral solution bioavailability was calculated in a non-crossover fashion using the mean intravenous dose and AUC0-inf values from the two intravenously dosed animals for the monkey PK study and in a crossover fashion for the rat PK study.

[1] = Mouse Plasma Protein Binding Study; format: in vitro ADME; details: heparinized mouse plasma, pH 7.5, ultracentrifugation 37° C. 3 hours, read-out: Plasma Protein Binding, % bound (converted)
Method: Stock solutions of the compound of Example 1, herein, and Compound A (the compound of Example 1 of WO 2018/109646), were prepared in dimethyl sulfoxide (DMSO) at a concentration of 1 mg/mL. Incubation mixtures were prepared by diluting the stock solution into heparinized mouse plasma to a concentration of 2000 ng/mL. The final concentration of DMSO was 0.2%. The thawed plasma was centrifuged to remove any debris. If necessary, the pH of the plasma sample was adjusted to approximately 7.5 with 1% aqueous phosphoric acid prior to use. Incubation mixtures were prepared. Triplicate 10 μL aliquots of each incubation mixture were collected and analyzed to verify initial compound concentration. Four aliquots of each incubation mixture were placed into separate polyallomer ultracentrifuge tubes. The incubation mixtures were centrifuged in a Beckman Type 42.2 Ti rotor at 42,000 rpm (214,361×g) at 37° C. for 3 hours with maximum acceleration and deceleration. […] The samples were quick frozen on solid carbon dioxide and stored at approximately −80° C. until analyzed by liquid chromatography/tandem mass spectroscopy (LC/MS/MS) for test compound concentration. Total recovery of compound from the ultracentrifugation tubes was calculated with the following formula: […]
Percent unbound (Fu) by ultracentrifugation was calculated with the following formula: […]

[2] = system: Nrf2 (NQO1 activity in BEAS-2B cells); assay: BEAS-2B NQO1 MTT Assay; format: cell-based; details: Homo sapiens, NQO1 specific activity induction
Text: NAD(P)H:quinone oxidoreductase 1 (NQO1), also called DT diaphorase, is a homodimeric FAD-containing enzyme that catalyzes obligatory NAD(P)H-dependent two-electron reductions of quinones and protects cells against the toxic and neoplastic effects of free radicals and reactive oxygen species arising from one-electron reductions. The transcription of NQO1 is finely regulated by Nrf2, and thus NQO1 activity is a good marker for Nrf2 activation. On day one, frozen BEAS-2B cells (ATCC) were thawed in a water bath, counted, and re-suspended at a concentration of 250,000 cells/mL. Fifty microliters of cells were plated in 384 well black clear-bottomed plates. Plates were incubated at 37° C., 5% CO2 overnight. On day two, plates were centrifuged and 50 nL of compound or controls were added to the cells. Plates were then incubated at 37° C., 5% CO2 for 48 hours. On day four, medium was aspirated from the plate and crude cell lysates were made by adding 13 μL of 1× Cell Signalling Technologies lysis buffer with 1 Complete, Mini, EDTA-free Protease Inhibitor Tablet (Roche) for each 10 mL of lysis buffer. After lysis plates were incubated for 20 minutes at room temperature. Two microliters of lysate were removed for use in Cell Titer Glo assay (Promega) and MTT cocktail was prepared (Prochaska et. al. 1998) for measurement of NQO1 activity. Fifty microliters of MTT cocktail was added to each well, plate was centrifuged, and analyzed on an Envision plate reader (Perkin Elmer) using Absorbance 570 nm label for 30 minutes. Product formation was measured kinetically and the pEC50 of NQO1 specific activity induction was calculated by plotting the change in absorbance (Delta OD/min) versus the log of compound concentration followed by 3-parameter fitting.
EC50s<1 nM (+++++), EC50s 1 nM-10 nM (++++), EC50s 10 nM-100 nM (+++), EC50s 100 nM-1 μM (++), EC50s 1 μM-10 μM (+).

[3] = read-out: Nrf2 BEAS-2B NQO1 EC50

fold improvement in mean residence time (MRT) versus Compound A (Monkey PK Study) [fold]	fold reduction in total clearance (CL) versus Compound A (Monkey PK Study) [fold]	MRT (Monkey PK Study) [h]	clearance (Monkey PK Study) [mL/min/kg]	fraction unbound at 3 h, 2000 ng/mL [1]	Compound	EC50 ([2]; 48 hours, read-out: EC50) [nM]	EC50 [2, 3] [nM]
~11	~27	18	0.41	0.084	CC[C@@H]1CN(Cc2cc([C@@H](CC(=O)O)c3ccc4c(nnn4C)c3C)ccc2C)Cc2nc(O)ccc2O1 [Example 1, (R)-3-(1,4-dimethyl-1H-benzo[d][1,2,3]triazol-5-yl)-3-(3-(((R)-2-ethyl-7-hydroxy-2,3-dihydropyrido[2,3-f][1,4]oxazepin-4(5H)-yl)methyl)-4-methylphenyl)propanoic acid]	10 to 100	13
–	–	1.6	10.9	0.003	CC[C@@H]1CN(Cc2cc([C@@H](CC(=O)O)c3ccc4c(nnn4C)c3C)ccc2C)Cc2ncccc2O1 [Compound A, reference compound]	–	16
